In brackets after ≈: the same amount, converted by molar mass. Where two headings read alike, the source gives them in different places.
Experiments:
Human topoisomerase IIα = Human topoisomerase IIα (Homo sapiens (Human), UniProt P11388); experiment: Human topoisomerase IIα decatenation inhibition assay; assay type: biochemical; conditions: kDNA decatenation; read-out: Topoisomerase inhibitory activity (IC50) Human topo IIα (type IIA)
Protocol: Human topoisomerase I and topoisomerase IIα were purchased from TopoGen (Buena vista, CO, USA). […] The reactions were then analyzed by electrophoresis in 1% agarose gels containing […] ethidium bromide before being photographed under UV light.

[1] = tested on: E. coli Imp4213 (BAS3023); experiment: MIC, microdilution in Mueller-Hinton Broth; assay type: cell-based; conditions: for MIC: Escherichia coli, read-out: Whole cell based antibacterial activity (MIC) E. coli Imp4213 (BAS3023), membrane permeable imp mutant
E. coli (MG1655) WT = experiment: MIC, microdilution in Mueller-Hinton Broth; conditions: wild type, read-out: Whole cell based antibacterial activity (MIC) E. coli (MG1655) WT
Human topoisomerase I = Human topoisomerase I (Homo sapiens (Human), UniProt P11387); experiment: Human topoisomerase I relaxation inhibition assay; assay type: biochemical; conditions: read-out: Topoisomerase inhibitory activity (IC50) Human topo I (type IB)
Sequence of Human topoisomerase I (P11387 whole entry): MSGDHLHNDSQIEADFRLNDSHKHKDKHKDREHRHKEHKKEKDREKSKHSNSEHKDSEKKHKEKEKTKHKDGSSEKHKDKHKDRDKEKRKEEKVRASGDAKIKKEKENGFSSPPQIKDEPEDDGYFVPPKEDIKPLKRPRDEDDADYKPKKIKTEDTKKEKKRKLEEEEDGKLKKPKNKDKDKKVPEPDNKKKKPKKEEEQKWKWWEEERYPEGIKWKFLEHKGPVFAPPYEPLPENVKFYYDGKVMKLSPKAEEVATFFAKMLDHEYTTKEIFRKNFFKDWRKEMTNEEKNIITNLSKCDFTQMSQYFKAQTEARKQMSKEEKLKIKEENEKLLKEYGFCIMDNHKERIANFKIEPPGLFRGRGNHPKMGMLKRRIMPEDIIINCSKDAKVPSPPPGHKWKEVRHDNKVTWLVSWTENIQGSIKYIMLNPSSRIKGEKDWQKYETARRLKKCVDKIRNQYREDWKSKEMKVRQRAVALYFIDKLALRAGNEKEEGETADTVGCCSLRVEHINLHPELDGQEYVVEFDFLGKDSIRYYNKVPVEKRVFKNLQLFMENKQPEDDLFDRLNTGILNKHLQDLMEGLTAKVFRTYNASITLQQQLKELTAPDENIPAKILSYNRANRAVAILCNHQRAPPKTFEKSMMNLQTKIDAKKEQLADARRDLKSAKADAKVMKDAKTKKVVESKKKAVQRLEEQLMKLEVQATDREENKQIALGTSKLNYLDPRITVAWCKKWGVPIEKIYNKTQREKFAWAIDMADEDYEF
Protocol: Human topoisomerase I relaxation assays were carried out with 0.5 U of enzyme in reaction buffer supplied by the manufacturer. The enzyme was mixed with the indicated concentration of compound dissolved before 200 ng of supercoiled pBAD/Thio plasmid DNA was added in the same buffer, for a final volume of 20 μL. Following incubation at 37° C. for 30 minutes, the reactions were terminated with a buffer containing 5% SDS, 0.25% bromophenol blue, and 25% glycerol, and analyzed by agarose gel electrophoresis.
Human topoisomerase I and topoisomerase IIα were purchased from TopoGen (Buena vista, CO, USA).

M. tuberculosis (H37Rv) = experiment: MIC, microplate Alamar blue assay (MABA); assay type: cell-based
Vero cells = experiment: Vero cell cytotoxicity assay; assay type: cell-based; conditions: Chlorocebus sabaeus, Vero; cytotoxicity
Protocol: (§1) MICs of compounds against M. tuberculosis were determined by a modified microplate Alamar blue assay (MABA). Vero cell cytotoxicity assay was performed as previously described.

[2] = Vero cell cytotoxicity assay; assay type: cell-based
Protocol: as §1

E. coli topoisomerase I = E. coli topoisomerase I (Escherichia coli (strain K12), UniProt P06612); experiment: biochemical; assay type: biochemical; conditions: for PIC50 (pIC50 = −log IC50): experimental, converted from IC50; for IC50: relaxation of supercoiled plasmid DNA
Sequence of E. coli topoisomerase I (P06612 whole entry, looked up): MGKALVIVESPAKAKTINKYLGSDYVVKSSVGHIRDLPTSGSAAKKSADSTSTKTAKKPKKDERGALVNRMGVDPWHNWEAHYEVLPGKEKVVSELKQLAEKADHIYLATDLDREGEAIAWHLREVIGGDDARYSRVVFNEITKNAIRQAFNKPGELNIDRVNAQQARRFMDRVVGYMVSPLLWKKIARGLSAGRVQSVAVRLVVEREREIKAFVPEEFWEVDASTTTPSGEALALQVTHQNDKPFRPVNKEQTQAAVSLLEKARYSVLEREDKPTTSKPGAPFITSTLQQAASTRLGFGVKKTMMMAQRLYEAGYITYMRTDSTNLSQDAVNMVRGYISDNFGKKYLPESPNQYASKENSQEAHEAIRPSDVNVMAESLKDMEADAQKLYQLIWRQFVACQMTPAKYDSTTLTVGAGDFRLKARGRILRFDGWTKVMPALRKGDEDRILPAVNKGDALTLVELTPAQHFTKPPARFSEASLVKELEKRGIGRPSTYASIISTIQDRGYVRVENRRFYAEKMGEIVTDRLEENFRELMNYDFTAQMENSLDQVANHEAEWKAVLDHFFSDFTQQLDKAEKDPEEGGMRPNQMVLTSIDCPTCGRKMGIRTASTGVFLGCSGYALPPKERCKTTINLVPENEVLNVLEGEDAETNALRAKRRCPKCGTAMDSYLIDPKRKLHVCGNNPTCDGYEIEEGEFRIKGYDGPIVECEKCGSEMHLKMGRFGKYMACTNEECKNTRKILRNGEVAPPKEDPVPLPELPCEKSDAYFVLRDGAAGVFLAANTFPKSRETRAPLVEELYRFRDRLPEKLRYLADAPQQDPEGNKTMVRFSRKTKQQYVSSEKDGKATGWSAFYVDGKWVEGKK
Protocol: (§2) Recombinant E. coli topoisomerase I and gyrase expressed in E. coli were purified as described previously.
E. coli Topoisomerase I Relaxation Activity Inhibition Assay
The relaxation activity of E. coli topoisomerase I was assayed in a buffer containing 10 mM Tris-HCl, pH 8.0, 50 mM NaCl, 0.1 mg/mL gelatin, and 0.5 mM MgCl2. Half microliter from the appropriate stock solutions of compounds dissolved in the solvent (DMSO) or the solvent alone (control) was mixed with 9.5 μL of the reaction buffer containing 10 ng of enzyme before the addition of 10 μL of reaction buffer containing 200 ng of supercoiled pBAD/Thio plasmid DNA purified by cesium chloride gradient as substrate. Following incubation at 37° C. for 30 min, the reactions were terminated by the addition of 4 μL of a stop buffer (50% glycerol, 50 mM EDTA, and 0.5% (v/v) bromophenol blue), and analyzed by agarose gel electrophoresis. The gels were stained in ethidium bromide and photographed under UV light.

[3] = tested on: mycobacterium smegmatis in biofilm; experiment: Biofilm viability by resazurin assay; assay type: cell-based
Protocol: Viability of the mycobacteria mycobacterium smegmatis in biofilm was measured by the resazurin assay.
The resazurin assay is a quick method using the resazurin dye as a bacterial respiration indicator to assay the antibacterial activity of various compounds used against bacterial biofilm growth. Such assay is well-known in the art. […] The biofilm was quantified indirectly by measuring the fluorescent, water-soluble resorufin product produced when resazurin is reduced by reactions associated with respiration.

E. coli DNA gyrase = E. coli DNA gyrase (Escherichia coli (strain K12), UniProt P0AES4+P0AES6); experiment: DNA gyrase supercoiling inhibition assay; assay type: biochemical; conditions: for IC50: supercoiling of relaxed DNA, read-out: Topoisomerase inhibitory activity (IC50) E. coli DNA gyrase (type IIA)
Protocol: as §2
The samples were incubated at 37° C. for 30 minutes before being terminated by the addition of a buffer containing 5% SDS, 0.25% bromophenol blue, and 25% glycerol. The reactions were then analyzed by agarose gel electrophoresis.

[4] = tested on: MRSA (staphylococcus aureus BAA44); experiment: MIC against MRSA; assay type: cell-based
[5] = target: Mycobacterium tuberculosis topoisomerase I (Mycobacterium tuberculosis (strain ATCC 25618 / H37Rv), UniProt P9WG49); experiment: Mycobacterium tuberculosis topoisomerase I inhibition; assay type: biochemical; conditions: Table 2; read-out: IC50 against Mycobacterium tuberculosis topoisomerase I
bacterial strains = experiment: Whole cell antibacterial activity after storage; assay type: cell-based; conditions: after 4 weeks of storage
[6] = 1H NMR experiments
[7] = tested on: several cancer cell lines; conditions: literature [32]; read-out: IC50 against several cancer cell lines; cited from earlier work
[8] = tested on: all the test bacteria strains; experiment: Whole cell antibacterial activity across all test strains; assay type: cell-based; conditions: range over strains; read-out: MICs against all the test bacteria strains
[9] = Mycobacterium tuberculosis, H37RV, MABA, read-out: Whole cell based antibacterial activity (MIC) M. tuberculosis (H37Rv)
[10] = Topoisomerase inhibitory activity (IC50) E. coli topo I (type IA)

Sequence of Human topoisomerase IIα (P11388 whole entry): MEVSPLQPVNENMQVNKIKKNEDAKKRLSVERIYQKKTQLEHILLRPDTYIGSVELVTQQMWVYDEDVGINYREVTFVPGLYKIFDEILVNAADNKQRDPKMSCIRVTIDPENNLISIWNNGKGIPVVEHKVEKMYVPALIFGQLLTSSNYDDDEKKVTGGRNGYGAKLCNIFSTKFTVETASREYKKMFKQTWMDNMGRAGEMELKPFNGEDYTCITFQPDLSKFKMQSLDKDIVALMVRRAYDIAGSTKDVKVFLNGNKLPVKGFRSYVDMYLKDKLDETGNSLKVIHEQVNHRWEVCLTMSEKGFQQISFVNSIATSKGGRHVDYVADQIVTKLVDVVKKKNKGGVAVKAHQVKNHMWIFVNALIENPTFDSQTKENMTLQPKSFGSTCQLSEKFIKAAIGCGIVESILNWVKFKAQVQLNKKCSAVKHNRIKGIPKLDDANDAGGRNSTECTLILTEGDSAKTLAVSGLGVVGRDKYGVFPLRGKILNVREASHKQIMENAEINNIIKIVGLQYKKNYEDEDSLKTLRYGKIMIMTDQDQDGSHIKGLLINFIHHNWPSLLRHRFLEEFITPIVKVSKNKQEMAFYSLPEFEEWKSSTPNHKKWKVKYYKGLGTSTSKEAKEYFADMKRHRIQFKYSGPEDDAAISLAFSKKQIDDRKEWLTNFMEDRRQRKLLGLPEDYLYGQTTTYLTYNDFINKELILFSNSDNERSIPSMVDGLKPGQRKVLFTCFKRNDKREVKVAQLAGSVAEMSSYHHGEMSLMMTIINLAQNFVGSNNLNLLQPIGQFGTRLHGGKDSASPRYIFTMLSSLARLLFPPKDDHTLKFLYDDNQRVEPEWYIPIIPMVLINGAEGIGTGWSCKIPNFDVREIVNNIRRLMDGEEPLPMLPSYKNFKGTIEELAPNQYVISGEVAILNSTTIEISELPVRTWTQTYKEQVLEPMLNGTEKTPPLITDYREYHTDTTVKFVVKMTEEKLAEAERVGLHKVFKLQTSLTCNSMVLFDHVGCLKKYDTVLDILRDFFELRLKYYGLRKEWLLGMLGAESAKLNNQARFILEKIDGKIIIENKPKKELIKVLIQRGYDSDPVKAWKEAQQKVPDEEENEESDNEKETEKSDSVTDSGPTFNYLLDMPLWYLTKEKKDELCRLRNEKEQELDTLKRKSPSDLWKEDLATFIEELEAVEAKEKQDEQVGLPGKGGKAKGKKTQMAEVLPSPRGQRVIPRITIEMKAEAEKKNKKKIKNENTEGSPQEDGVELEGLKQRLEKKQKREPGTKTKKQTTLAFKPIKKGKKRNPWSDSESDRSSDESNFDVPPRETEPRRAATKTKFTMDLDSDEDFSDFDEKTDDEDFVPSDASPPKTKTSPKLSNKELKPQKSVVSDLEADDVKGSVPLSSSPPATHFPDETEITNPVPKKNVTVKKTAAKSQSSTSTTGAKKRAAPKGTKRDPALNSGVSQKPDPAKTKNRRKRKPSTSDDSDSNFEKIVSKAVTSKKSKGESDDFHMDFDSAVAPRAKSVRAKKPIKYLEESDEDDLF

| Structure (SMILES) | IC50 (Human topoisomerase IIα) [µM] | MIC [1] [µM] | MIC (E. coli (MG1655) WT; Escherichia coli, MG1655) [µM] | IC50 (Human topoisomerase I) [µM] | MIC (M. tuberculosis (H37Rv); [9]) [µM] | IC50 (Vero cells) [µM] | selectivity ratio ([2]; monkey) | PIC50 (pIC50 = −log IC50) (E. coli topoisomerase I) | IC50 (E. coli DNA gyrase) [µM] | IC50 (E. coli topoisomerase I; [10]) [µM] | other results |
| --- | --- | --- | --- | --- | --- | --- | --- | --- | --- | --- | --- |
| CN1CCN(c2c(F)cc3c(=O)c(C(=O)O)cn4c3c2Oc2cc([N+](=O)[O-])ccc2-4)CC1 [Compound 10a, 5-Fluoro-6-(4-methylpiperazin-1-yl)-9-nitro-3-oxo-3H-pyrido[3,2,1-kl]phenoxazine-2-carboxylic acid] | 250 to 500 | 1.56 (≈ 0.687 µg/mL) | 100 (≈ 44 µg/mL) | 31.2 | 19 (≈ 8.37 µg/mL) | 95 | 5 | 5.71 |  |  |  |
| O=C(O)c1cn(C2CC2)c2cc(N3CCNCC3)c(F)cc2c1=O [ciprofloxacin, reference compound] |  |  |  |  |  |  |  |  |  |  | concentration that abolishes 90% of viability in biofilm [3]: ≥ 24 µM |
| O=C(O)c1cn2c3c(c(F)c(F)cc3c1=O)Oc1cc([N+](=O)[O-])c(Cl)cc1-2 [Compound 7e, 10-Chloro-5,6-difluoro-9-nitro-3-oxo-3H-pyrido[3,2,1-kl]phenoxazine-2-carboxylic acid] | 125 | 0.39 (≈ 0.154 µg/mL) | 50 (≈ 19.7 µg/mL) | 31.2 | 29 (≈ 11.4 µg/mL) | > 127 | > 4.4 | 4.51 | 62.5 |  | selectivity toward topoisomerase I over DNA gyrase (E. coli DNA gyrase): 2 fold |
| Nc1ccc2c(c1)Oc1c(N3CCOCC3)c(F)cc3c(=O)c(C(=O)O)cn-2c13 [Compound 11d, 9-Amino-5-fluoro-6-morpholino-3-oxo-3H-pyrido[3,2,1-kl]phenoxazine-2-carboxylic acid] | 15.6 | 0.19 to 0.39 (≈ 0.0755 to 0.155 µg/mL) | > 200 | 15.6 | 3.5 (≈ 1.39 µg/mL) | 24.7 | 7.1 | 6.01 | 7.8 |  | MIC [4]: 3 µM (≈ 1.19 µg/mL); IC50 [5]: 0.48 µM |
| Nc1ccc2c(c1)Oc1c(F)c(F)cc3c(=O)c(C(=O)O)cn-2c13 [Compound 1, 9-Amino-5,6-difluoro-3-oxo-3H-pyrido[3,2,1-kl]phenoxazine-2-carboxylic acid] | > 500 | 0.78 to 1.56 (≈ 0.258 to 0.515 µg/mL) | > 200 | 31.3 |  |  |  | 5.71 | > 125 |  | loss of whole cell antibacterial activity after storage (bacterial strains): 2-4 fold; precipitation in d6-DMSO solvent [6]: could be easily precipitated out |
| N[C@H]1CCN(c2c(F)cc3c(=O)c(C(=O)O)cn4c3c2Oc2ccccc2-4)C1 [Compound A-62176] |  |  |  |  |  |  |  |  |  |  | IC50 [7]: 0.87 to 4.34 µM |
| N[C@H]1CCN(c2c(F)cc3c(=O)c(C(=O)O)cn4c3c2Oc2cc([N+](=O)[O-])ccc2-4)C1 [Compound 16, (S)-6-(3-aminopyrrolidin-1-yl)-5-fluoro-9-nitro-3-oxo-3H-pyrido[3,2,1-kl]phenoxazine-2-carboxylic acid] |  | 1.56 (≈ 0.665 µg/mL) | > 200 | 7.8 | > 50 | > 50 |  | 6.32 | 3.9 | 0.24 to 0.97 |  |
| CN1CCN(c2c(F)cc3c(=O)c(C(=O)O)cn4c3c2Oc2cc(N)ccc2-4)CC1 [Compound 11a, 9-Amino-5-fluoro-6-(4-methylpiperazin-1-yl)-3-oxo-3H-pyrido[3,2,1-kl]phenoxazine-2-carboxylic acid] |  |  | 6.25 (≈ 2.57 µg/mL) | 15.6 |  |  |  | 6.32 |  | 0.24 to 0.97 | MIC [8]: 0.78 to 7.6 µM (≈ 0.32 to 3.12 µg/mL) |
| Nc1ccc2c(c1)Oc1c(N3CCC(N4CCCCC4)CC3)c(F)cc3c(=O)c(C(=O)O)cn-2c13 [Compound 11g, 6-([1,4′-Bipiperidin]-1′-yl)-9-amino-5-fluoro-3-oxo-3H-pyrido[3,2,1-kl]phenoxazine-2-carboxylic acid] | 1.95 to 3.9 | 0.39 to 0.78 (≈ 0.187 to 0.373 µg/mL) | > 200 | 3.9 | 2.5 (≈ 1.2 µg/mL) | 24.4 | 9.8 | 6.31 | 15.6 | 0.24 to 0.97 | concentration that abolishes 90% of viability in biofilm [3]: 1.5 to 3 µM; MIC [4]: 12.5 µM (≈ 5.98 µg/mL); IC50 [5]: 0.24 µM; MIC (M. tuberculosis (H37Rv); Mycobacterium tuberculosis strain H37Rv, Table 2, read-out: MIC (TB)): 2.5 µM (≈ 1.2 µg/mL); selectivity ratio ([2]; African green monkey): 9.8; IC50 (E. coli topoisomerase I; read-out: Topoisomerase inhibitory activity (IC50) E. coli topo I (type IA)): 0.48 µM |
| Nc1ccc2c(c1)Oc1c(NCCN3CCOCC3)c(F)cc3c(=O)c(C(=O)O)cn-2c13 [Compound 11h, 9-Amino-5-fluoro-6-((2-morpholinoethyl)amino)-3-oxo-3H-pyrido[3,2,1-kl]phenoxazine-2-carboxylic acid] |  |  |  | 7.8 to 15.6 |  | 43 |  |  | 15.6 to 31.2 |  | Whole cell based antibacterial activity (MIC) E. coli Imp4213 (BAS3023) ([1]; membrane permeable imp mutant): 0.78 µM; MIC (E. coli (MG1655) WT): >200 µM; MIC (M. tuberculosis (H37Rv); MABA, read-out: Whole cell based antibacterial activity (MIC) M. tuberculosis (H37Rv)): 21.6 µM (≈ 9.51 µg/mL) |

— US10266550B2, “Bacterial topoisomerase I inhibitors with antibacterial activity” (The Florida International University Board of Trustees, priority 2016, dated 2019)
